Results as given in ChEMBL document CHEMBL3507680, “University of Dundee, Gates Library screen for HepG2 cell viability”.

Assay: Human HepG2 cell viability assay in 384 well format
Assay type: toxicity, cell-based
Set-up: dose 125 nL, time 70.5 hour; cytotoxicity at 70.5 h: concentration not given beside the values
Conditions: HepG2 cells, read-out: Inhibition

SMILES | cytotoxicity at 70.5 h
NCCO[C@H]1C[C@@H](O)C12CCN(C(=O)COc1cccc(Cl)c1)CC2 | -5.89%
Cc1nn(C)c(C)c1C(=O)N1CCOCC1CC(=O)c1ccco1 (stereo unspecified) | -18.7%
Cc1cccc(NC2CCN(C(=O)Nc3ccncc3)CC2)n1 | 24.2%
CC(c1ccco1)N(C)Cc1cccc(C(=O)Nc2nccn2C)c1 (stereo unspecified) | -5.04%
Cc1ccc(CN2CCCC3(CCCN3S(C)(=O)=O)C2)s1 (stereo unspecified) | -8%
O=S(=O)(NCCCn1cncn1)c1ccc2c(c1)OCCO2 | -3.62%
CS(=O)(=O)NCC(=O)NCc1cccnc1-n1cnc2ccccc21 | 17.2%
Cc1nnc(N2CCc3cncnc3C2)c(C#N)c1C | -4.76%
CCCNC(=O)CNc1cc(C#N)ccc1OCC | 14.1%
Cc1cccc(NCc2nc(C)ccc2O)c1 | -1.28%
COc1ccc(NC(=O)C2CC(=O)N(C)C2)cn1 (stereo unspecified) | -5.38%
COC(=O)N1CC(C)=C(C)CN1C(=O)Nc1ccc(Cl)cc1 | 3.18%
Cc1cc(C)n(CC2CCCN2C(=O)c2c(C)noc2C)n1 (stereo unspecified) | 18.5%
c1csc(-c2noc(CCCN3CCCC3Cn3cccn3)n2)c1 (stereo unspecified) | -8.63%
O=C(CCSc1ccc(F)cc1)N1CCN(c2cnccn2)CC1 | -14.2%
Cc1ccc(N(CC(=O)N2CCCCC2)C(=O)C2CCCO2)cc1 (stereo unspecified) | -1.14%
COc1cc2c(cc1-c1nc3c(cnn3C(C)C)[nH]1)OCO2 | -0.0981%
O=C(c1ccc(S(=O)(=O)NCc2ccon2)cc1)N1CCCCCC1 | -7.49%
Cc1noc(Cl)c1CC(=O)NCC(C)(O)c1ccc(F)cc1F (stereo unspecified) | 10.7%

SMILES | cytotoxicity at 70.5 h
CCc1c(C(=O)N2CC(C)OC(C)(C)C2)cnn1-c1ccccn1 (stereo unspecified) | -4.53%
CCCc1cc(C(=O)N[C@@H](CO)[C@@H](O)c2ccccc2)n(C)n1 | 0.909%
CCc1nc(C2CCCN2C(=O)CCCOc2cccc(F)c2)no1 (stereo unspecified) | -18.6%
Cc1ccc(Oc2ncccc2CNS(=O)(=O)N2CCOCC2)cn1 | -4.6%
COC(=O)CC(c1cnn(C)c1)c1oc(C)cc(=O)c1O (stereo unspecified) | 7.5%
O=C(CNc1ccccc1S(=O)(=O)C(F)F)NCc1ccco1 | -5.76%
Cc1ccc(-n2ncc(C(=O)NC3CC(C)(C)NC(C)(C)C3)c2N)cc1 | 19.8%
Cc1nc(N2CCOCC2)nc2c1CCN(C(=O)NC1CCCC1)CC2 | 20.6%
CC(C)OCCCNC(=O)N(C)C(C)c1ccc(-n2cncn2)cc1 (stereo unspecified) | -6.64%
CC(C)c1nc(C2CCCN2Cc2nccn2CC(F)(F)F)no1 (stereo unspecified) | -8.8%
CC(=O)N1CC(C(=O)N2CCCC(Cn3ccnc3C)C2)C1 (stereo unspecified) | -9.41%
CN([C@@H]1CCC[C@@H](n2ccnc2)[C@@H]1O)S(=O)(=O)c1cn(C)cn1 | 19.9%
Cc1cc(NC2CCCN(Cc3ccc(F)cc3)C2)n2nc(C)cc2n1 (stereo unspecified) | -0.0493%
Cc1nnc([C@H]2C[C@@H]3CCN(Cc4cc(C)on4)C[C@H]3O2)[nH]1 | -4.17%
Cc1nn(C)c2nc(N(C)CCN(C)C3CCCC3)sc12 | 5.16%
COc1ccc(Nc2ncccc2C#N)cc1N1CCCC1=O | 5.71%
CCC(=O)N1CC[C@H](O)[C@@H]1Cc1ccccc1 | -9.02%
CC(C)CNC(=O)N1CC[C@@H]2CN(Cc3cccnc3)S(=O)(=O)[C@@H]2CC1 | -4.92%
O=C(NCc1ccncc1)N1CCSCC1CCO (stereo unspecified) | 10.5%

SMILES | cytotoxicity at 70.5 h
COCc1nc(N(C)C/C=C/c2ccccc2)c2cnn(C)c2n1 | -8.43%
CC(C)(CNC(=O)C(C)(C)Oc1ccc2c(c1)CCCC2=O)C(N)=O | 0.471%
Cc1csc(N2CCCN(C(=O)C(C)n3cncn3)CC2)n1 (stereo unspecified) | 1.24%
CCN1CCOCC2(CCCN(C(=O)c3conc3C)C2)C1 (stereo unspecified) | -1.18%
Cc1nc[nH]c1C(=O)N1CCCC2(CN(C)C(=O)O2)C1 (stereo unspecified) | -0.146%
Cc1cnn(CC2CCCCN2C(=O)c2ccc3[nH]c(=O)[nH]c3c2)c1 (stereo unspecified) | -0.746%
CCn1cc(CN2CCN(CC(O)c3ccc(C)cc3C)CC2)c(C)n1 (stereo unspecified) | -6.8%
Cc1[nH]c2c(C)ccc(C)c2c1CC(=O)NCc1csc(N(C)C)n1 | 17.8%
CSc1ccccc1NC(=O)C1CN(C(=O)c2ccc3c(c2)OCO3)C1 | 0.521%
O=C(c1nc(-c2ccc3cc[nH]c3c2)no1)N1CCCC1 | -5.08%
O=C(NC[C@H]1OC[C@@H](NC2CCNCC2)[C@@H]1O)C1CCCC1 | -5.05%
COc1ccc(OC)c(CNCCc2cc(F)cc3c2OCOC3)c1 | 9.35%
Cc1ccc2c(c1)CCC2NCc1c(C)nn(C)c1N1CCOCC1 (stereo unspecified) | -1.48%
Cc1cc(C(=O)NCc2ccc(F)cc2)c2c(C3CCCN3)noc2n1 (stereo unspecified) | -6.52%
Cc1noc(-c2ccc(N3CCC(C(=O)N4CCCC4)CC3)nc2)n1 | -1.82%
CCc1ccc(CN2CCN(c3ccc(C(N)=O)cn3)CC2)nc1 | 2.82%
Cc1noc(C(C)N2CCN(CCC(=O)N3CCOCC3)CC2)n1 (stereo unspecified) | -5.76%
Cc1nn(C)c2c(=O)n(CC(=O)NCCC(C)C)ccc12 | -5.71%
